Key:
Assay in all cases: KINOMEscan competition binding
Settings in all cases: compound 0.1 µM
[1] = system: ABL1 (human), P00519 [F317I]
[2] = target: ABL2 (human) (UniProt P42684)
[3] = target: ADCK3 (human) (UniProt Q8NI60)
[4] = target: AKT1 (human) (UniProt P31749)
[5] = target: CAMK2B (human) (UniProt Q13554)
[6] = target: CAMKK1 (human) (UniProt Q8N5S9)
[7] = target: CASK (human) (UniProt O14936)
[8] = target: CDC42BPA (human) (UniProt Q5VT25)
[9] = system: CPK1 (P.falciparum)
[10] = target: EGFR (human) (UniProt P00533)
[11] = system: EGFR (human), P00533 [747-751 del / S ins]
[12] = system: EGFR (human), P00533 [L861Q]
[13] = target: ERBB2 (human) (UniProt P04626)
[14] = target: ERBB4 (human) (UniProt Q15303)
[15] = system: FLT3 (human), P36888 [R834Q]
[16] = target: GRK1 (human) (UniProt Q15835)
GRK1 (human), sequence (Q15835 whole entry, looked up): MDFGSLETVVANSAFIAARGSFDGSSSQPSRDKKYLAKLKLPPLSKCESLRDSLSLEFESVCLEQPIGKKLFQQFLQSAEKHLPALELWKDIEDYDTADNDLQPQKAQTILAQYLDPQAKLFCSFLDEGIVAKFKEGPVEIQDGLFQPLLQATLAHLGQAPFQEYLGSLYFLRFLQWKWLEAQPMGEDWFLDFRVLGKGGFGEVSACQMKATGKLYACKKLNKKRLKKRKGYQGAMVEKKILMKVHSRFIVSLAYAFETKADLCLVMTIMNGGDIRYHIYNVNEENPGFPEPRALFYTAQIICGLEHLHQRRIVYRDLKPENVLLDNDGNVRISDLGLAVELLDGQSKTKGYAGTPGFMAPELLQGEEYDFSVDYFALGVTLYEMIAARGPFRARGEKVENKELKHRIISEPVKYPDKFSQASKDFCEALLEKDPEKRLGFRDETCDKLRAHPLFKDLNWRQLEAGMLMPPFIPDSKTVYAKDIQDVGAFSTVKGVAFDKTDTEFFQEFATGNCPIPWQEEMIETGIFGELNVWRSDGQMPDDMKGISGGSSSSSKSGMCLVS

[17] = target: HIPK4 (human) (UniProt Q8NE63)
[18] = target: HUNK (human) (UniProt P57058)
[19] = target: MAP2K7 (human) (UniProt O14733)
[20] = target: MAP3K6 (human) (UniProt O95382)
[21] = target: MAP4K4 (human) (UniProt O95819)
MAP4K4 (human), sequence (O95819 whole entry, looked up): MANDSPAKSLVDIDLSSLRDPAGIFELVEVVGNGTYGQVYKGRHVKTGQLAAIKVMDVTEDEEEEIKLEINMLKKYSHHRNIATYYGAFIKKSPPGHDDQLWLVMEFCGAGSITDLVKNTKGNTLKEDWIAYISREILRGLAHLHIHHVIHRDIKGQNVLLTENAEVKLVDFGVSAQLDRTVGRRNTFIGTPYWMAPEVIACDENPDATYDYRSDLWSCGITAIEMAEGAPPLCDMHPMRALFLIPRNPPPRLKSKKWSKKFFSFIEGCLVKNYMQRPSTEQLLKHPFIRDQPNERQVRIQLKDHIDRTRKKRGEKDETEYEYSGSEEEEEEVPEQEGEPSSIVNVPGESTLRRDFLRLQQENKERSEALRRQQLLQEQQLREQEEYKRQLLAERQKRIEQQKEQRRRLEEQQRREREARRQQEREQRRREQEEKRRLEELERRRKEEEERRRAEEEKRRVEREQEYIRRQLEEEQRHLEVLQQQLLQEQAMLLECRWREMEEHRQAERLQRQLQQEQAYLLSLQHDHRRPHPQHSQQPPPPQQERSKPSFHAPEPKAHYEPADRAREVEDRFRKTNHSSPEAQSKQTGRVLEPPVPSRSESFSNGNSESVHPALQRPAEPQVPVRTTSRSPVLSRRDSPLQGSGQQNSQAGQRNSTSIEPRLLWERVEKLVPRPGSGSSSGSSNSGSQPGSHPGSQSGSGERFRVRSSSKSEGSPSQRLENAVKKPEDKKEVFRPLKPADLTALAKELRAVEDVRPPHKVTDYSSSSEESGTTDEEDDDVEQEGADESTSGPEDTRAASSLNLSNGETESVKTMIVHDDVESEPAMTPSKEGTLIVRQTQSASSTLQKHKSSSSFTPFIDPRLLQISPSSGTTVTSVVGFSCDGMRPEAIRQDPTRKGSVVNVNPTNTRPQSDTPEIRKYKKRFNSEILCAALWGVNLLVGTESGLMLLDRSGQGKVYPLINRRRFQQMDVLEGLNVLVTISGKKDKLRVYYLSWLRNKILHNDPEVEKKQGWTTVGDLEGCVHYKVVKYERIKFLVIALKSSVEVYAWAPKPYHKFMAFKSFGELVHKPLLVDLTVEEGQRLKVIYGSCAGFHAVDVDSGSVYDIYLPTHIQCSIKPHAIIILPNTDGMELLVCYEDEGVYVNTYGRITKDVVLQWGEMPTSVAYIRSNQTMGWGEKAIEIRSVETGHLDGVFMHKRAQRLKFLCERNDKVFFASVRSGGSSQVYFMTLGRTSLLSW

[22] = target: MAPK8 (human) (UniProt P45983)
MAPK8 (human), sequence (P45983 whole entry, looked up): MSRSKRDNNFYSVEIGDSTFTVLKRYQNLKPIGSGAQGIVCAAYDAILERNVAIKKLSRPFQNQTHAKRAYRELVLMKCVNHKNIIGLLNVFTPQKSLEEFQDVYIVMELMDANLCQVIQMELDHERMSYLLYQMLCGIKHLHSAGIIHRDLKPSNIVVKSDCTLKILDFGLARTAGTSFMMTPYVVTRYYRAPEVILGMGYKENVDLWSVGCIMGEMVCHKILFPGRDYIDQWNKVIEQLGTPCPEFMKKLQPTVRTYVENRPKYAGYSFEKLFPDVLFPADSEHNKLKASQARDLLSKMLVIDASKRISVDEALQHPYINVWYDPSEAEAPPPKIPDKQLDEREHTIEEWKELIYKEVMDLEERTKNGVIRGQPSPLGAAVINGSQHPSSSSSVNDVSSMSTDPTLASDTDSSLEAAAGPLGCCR

[23] = target: MELK (human) (UniProt Q14680)
[24] = system: MET (human), P08581 [M1250T]
[25] = target: MYO3A (human) (UniProt Q8NEV4)
[26] = target: NEK10 (human) (UniProt Q6ZWH5)
[27] = target: NEK9 (human) (UniProt Q8TD19)
[28] = target: NTRK1 (human) (UniProt P04629)
[29] = system: PIK3CA (human), P42336 [H1047L]
PIK3CA (human), P42336 [H1047L], sequence (P42336 whole entry H1047L, looked up): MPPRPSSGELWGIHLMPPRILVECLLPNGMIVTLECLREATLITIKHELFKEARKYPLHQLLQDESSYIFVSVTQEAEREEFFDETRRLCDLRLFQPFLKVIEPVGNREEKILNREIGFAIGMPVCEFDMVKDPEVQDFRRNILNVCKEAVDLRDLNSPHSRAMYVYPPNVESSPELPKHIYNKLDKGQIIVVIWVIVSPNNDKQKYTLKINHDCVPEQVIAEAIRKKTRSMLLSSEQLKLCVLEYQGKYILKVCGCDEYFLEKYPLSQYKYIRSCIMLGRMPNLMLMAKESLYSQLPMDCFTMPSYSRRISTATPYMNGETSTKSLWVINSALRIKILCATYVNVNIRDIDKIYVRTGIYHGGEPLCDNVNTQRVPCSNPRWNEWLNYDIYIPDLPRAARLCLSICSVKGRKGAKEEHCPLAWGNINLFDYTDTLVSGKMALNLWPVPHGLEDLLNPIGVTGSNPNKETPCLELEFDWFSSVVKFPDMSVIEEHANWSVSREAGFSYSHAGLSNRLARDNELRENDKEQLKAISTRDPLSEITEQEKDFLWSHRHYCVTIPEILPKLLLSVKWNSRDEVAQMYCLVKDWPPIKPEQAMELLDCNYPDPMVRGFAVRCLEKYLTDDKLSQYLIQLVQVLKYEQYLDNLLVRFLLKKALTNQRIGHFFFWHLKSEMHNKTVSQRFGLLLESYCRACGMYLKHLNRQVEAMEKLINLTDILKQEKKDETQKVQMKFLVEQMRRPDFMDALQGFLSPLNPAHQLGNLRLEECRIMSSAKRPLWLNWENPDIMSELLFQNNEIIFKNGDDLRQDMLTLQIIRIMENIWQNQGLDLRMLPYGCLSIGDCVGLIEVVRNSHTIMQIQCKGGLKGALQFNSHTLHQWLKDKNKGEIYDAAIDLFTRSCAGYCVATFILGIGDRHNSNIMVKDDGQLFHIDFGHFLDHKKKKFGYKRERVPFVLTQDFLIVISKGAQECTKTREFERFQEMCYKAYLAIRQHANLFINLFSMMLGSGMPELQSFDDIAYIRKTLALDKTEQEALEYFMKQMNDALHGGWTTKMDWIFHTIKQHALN

[30] = system: PIK3CA (human), P42336 [I800L]
PIK3CA (human), P42336 [I800L], sequence (P42336 whole entry I800L, looked up): as the sequence (P42336 whole entry H1047L, looked up) above, with I800L, L1047H counted along it

[31] = system: PIK3CA (human), P42336 [M1043I]
PIK3CA (human), P42336 [M1043I], sequence (P42336 whole entry M1043I, looked up): as the sequence (P42336 whole entry H1047L, looked up) above, with M1043I, L1047H counted along it

[32] = target: PKN2 (human) (UniProt Q16513)
[33] = target: PRKCQ (human) (UniProt Q04759)
[34] = target: PRPF4B (human) (UniProt Q13523)
[35] = target: RIOK3 (human) (UniProt O14730)
[36] = target: RIPK2 (human) (UniProt O43353)
[37] = target: SRMS (human) (UniProt Q9H3Y6)
SRMS (human), sequence (Q9H3Y6 whole entry, looked up): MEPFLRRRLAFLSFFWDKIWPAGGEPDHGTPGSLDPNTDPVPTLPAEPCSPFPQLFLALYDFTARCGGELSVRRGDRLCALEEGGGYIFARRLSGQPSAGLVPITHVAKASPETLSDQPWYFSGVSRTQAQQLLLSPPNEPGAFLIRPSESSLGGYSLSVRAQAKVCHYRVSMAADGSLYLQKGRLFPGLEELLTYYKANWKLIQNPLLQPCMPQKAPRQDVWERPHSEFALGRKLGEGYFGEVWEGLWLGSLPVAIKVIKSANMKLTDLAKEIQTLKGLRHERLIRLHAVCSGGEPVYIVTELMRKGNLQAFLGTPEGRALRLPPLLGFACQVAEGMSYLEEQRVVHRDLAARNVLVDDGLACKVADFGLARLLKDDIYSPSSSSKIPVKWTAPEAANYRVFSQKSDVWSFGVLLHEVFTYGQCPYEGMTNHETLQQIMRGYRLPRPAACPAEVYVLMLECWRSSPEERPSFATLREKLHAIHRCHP

[38] = target: STK36 (human) (UniProt Q9NRP7)
[39] = target: TIE1 (human) (UniProt P35590)
[40] = target: TNNI3K (human) (UniProt Q59H18)

ABL1 (human), P00519 [F317I], sequence (P00519 whole entry F317I, looked up): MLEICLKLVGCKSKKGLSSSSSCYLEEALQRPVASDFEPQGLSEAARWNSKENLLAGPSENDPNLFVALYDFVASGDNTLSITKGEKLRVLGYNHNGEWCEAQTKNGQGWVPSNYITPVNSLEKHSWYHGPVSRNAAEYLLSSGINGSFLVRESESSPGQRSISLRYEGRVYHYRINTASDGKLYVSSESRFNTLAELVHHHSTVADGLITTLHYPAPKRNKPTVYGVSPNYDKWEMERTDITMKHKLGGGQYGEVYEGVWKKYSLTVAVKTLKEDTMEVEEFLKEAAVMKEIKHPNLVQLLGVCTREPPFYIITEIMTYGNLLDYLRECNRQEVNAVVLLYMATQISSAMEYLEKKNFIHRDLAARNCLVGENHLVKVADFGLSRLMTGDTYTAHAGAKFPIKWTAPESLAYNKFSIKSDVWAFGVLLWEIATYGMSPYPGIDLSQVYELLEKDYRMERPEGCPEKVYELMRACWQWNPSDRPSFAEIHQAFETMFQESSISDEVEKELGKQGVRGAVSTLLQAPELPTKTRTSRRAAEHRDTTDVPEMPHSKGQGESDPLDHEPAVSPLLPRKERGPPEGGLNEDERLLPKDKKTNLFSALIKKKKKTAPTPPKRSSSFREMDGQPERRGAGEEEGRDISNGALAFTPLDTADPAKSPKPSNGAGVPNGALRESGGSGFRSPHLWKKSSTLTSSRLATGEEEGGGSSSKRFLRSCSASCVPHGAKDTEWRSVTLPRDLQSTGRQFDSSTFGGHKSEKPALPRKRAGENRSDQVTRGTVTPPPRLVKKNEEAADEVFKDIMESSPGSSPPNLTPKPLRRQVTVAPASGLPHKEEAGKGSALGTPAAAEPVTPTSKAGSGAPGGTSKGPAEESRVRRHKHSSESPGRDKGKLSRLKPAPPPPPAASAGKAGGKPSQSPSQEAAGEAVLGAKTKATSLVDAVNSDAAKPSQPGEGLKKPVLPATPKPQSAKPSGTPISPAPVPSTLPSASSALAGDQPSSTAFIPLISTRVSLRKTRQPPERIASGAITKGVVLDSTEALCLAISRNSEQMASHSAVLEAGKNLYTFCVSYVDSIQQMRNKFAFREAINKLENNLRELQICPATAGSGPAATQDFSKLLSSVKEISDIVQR

CCc1ccc(C(=O)Nc2cc(CN3CCN(C)CC3)cc(C(F)(F)F)c2)cc1C#Cc1cnc2ccnn2c1
kinase still bound, per cent of control [1]: 83% | kinase still bound, per cent of control [2]: 39% | kinase still bound, per cent of control [3]: 90% | kinase still bound, per cent of control [4]: 81% | kinase still bound, per cent of control [5]: 72% | kinase still bound, per cent of control [6]: 69% | kinase still bound, per cent of control [7]: 100% | kinase still bound, per cent of control [8]: 84% | kinase still bound, per cent of control [9]: 100% | kinase still bound, per cent of control [10]: 100% | kinase still bound, per cent of control [11]: 100% | kinase still bound, per cent of control [12]: 100% | kinase still bound, per cent of control [13]: 61% | kinase still bound, per cent of control [14]: 100% | kinase still bound, per cent of control [15]: 100% | kinase still bound, per cent of control [16]: 100% | kinase still bound, per cent of control [17]: 78% | kinase still bound, per cent of control [18]: 100% | kinase still bound, per cent of control [19]: 100% | kinase still bound, per cent of control [20]: 100% | kinase still bound, per cent of control [21]: 100% | kinase still bound, per cent of control [22]: 100% | kinase still bound, per cent of control [23]: 95% | kinase still bound, per cent of control [24]: 85% | kinase still bound, per cent of control [25]: 100% | kinase still bound, per cent of control [26]: 100% | kinase still bound, per cent of control [27]: 100% | kinase still bound, per cent of control [28]: 75% | kinase still bound, per cent of control [29]: 100% | kinase still bound, per cent of control [30]: 100% | kinase still bound, per cent of control [31]: 100% | kinase still bound, per cent of control [32]: 74% | kinase still bound, per cent of control [33]: 80% | kinase still bound, per cent of control [34]: 75% | kinase still bound, per cent of control [35]: 64% | kinase still bound, per cent of control [36]: 56% | kinase still bound, per cent of control [37]: 99% | kinase still bound, per cent of control [38]: 84% | kinase still bound, per cent of control [39]: 51% | kinase still bound, per cent of control [40]: 56%

— the kinase profiling compilation of Christmann-Franck et al. (2016)
